From US12404265B2, “Substituted pyridine derivatives as SARM1 inhibitors” (Nura Bio, Inc., priority 2020, dated 2025)

Target: T1, human SARM1(50-724) (Homo sapiens, UniProt Q6SZW1)
T1 construct: 40 nM human SARM1(50-724)
T1 sequence (Q6SZW1 50-724): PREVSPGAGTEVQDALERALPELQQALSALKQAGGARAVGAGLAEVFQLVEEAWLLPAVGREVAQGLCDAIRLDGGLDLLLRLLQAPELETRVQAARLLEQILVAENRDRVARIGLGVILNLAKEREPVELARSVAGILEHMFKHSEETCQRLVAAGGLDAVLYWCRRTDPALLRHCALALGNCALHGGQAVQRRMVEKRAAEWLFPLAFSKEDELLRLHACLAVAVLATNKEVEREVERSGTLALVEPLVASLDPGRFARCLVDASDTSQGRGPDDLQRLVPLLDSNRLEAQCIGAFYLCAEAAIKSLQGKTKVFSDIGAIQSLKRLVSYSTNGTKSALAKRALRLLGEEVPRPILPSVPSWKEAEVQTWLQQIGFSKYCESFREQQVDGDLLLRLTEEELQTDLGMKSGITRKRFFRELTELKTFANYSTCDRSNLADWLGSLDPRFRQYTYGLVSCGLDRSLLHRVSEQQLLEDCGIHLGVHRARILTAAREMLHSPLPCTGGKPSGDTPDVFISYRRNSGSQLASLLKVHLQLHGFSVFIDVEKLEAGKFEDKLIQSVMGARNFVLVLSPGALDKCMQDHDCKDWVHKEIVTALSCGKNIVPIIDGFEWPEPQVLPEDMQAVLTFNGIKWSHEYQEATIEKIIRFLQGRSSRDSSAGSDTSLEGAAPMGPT
Test: SARM1 NADase biochemical assay (HPLC of NAD and NAM)
Conditions: 40 nM human SARM1(50-724), 0.3 mM NMN, 20 μM NAD, 60 minutes room temperature; dose-response from 100 μM, 1:3 dilution
Experimental: Each reaction was run at a volume of 20 μL containing 50 μM compound (dissolved in DMSO; final concentration of DMSO is 1% v/v), 40 nM human SARM1(50-724), 0.3 mM NMN, 20 μM NAD, 1 mM TCEP, 25 mM HEPES pH 7.4, 10 mM KCl and 10 mM MgCl2. The reaction was incubated at room temperature for 60 minutes and quenched with 20 μL of 0.4% formic acid. The samples were run on Agilent HPLC 1260 Infinity II with Synergi 2.5 μM Fusion-RP 100 Å (100×3.0 mm) LC column from Phenomenex. Total run time for each sample was 4 minutes. The run was isocratic with 1.5% methanol in 40 mM ammonium acetate pH 6.0. Samples were run at a flow rate of 0.8 mL/min at 55° C. Peak areas of NAD and NAM were determined using OpenLAB CDS (Chem Station edition) software. For dose-response, the compound was diluted serially 1:3 in DMSO and added to the reaction starting at a final compound concentration of 100 μM in 1% DMSO.

Structure (SMILES) | IC50 [nM]
Cc1c(-c2ccncc2)n[nH]c1NC(=O)CCc1cc(Cl)cc(Cl)c1 [Example 21, 3-(3,5-Dichlorophenyl)-N-(4-methyl-3-(pyridin-4-yl)-1H-pyrazol-5-yl)propanamide] | 1000 to 10000
Cc1c(N2C(=O)[C@H](Cc3ccc(Cl)cc3)NC2(C)C)cnn1-c1ccncc1 [Example 152, (S)-5-(4-Chlorobenzyl)-2,2-dimethyl-3-(5-methyl-1-(pyridin-4-yl)-1H-pyrazol-4-yl)imidazolidin-4-one] | 1000 to 10000
Cc1cnccc1-c1n[nH]c(NC(=O)CCc2cc(F)c(C#N)c(F)c2)c1C [Example 113] | 1000 to 10000
Cc1c(-c2ccncc2)n[nH]c1NC(=O)NCc1ccc(Cl)cc1 [Example 161, 1-(4-Chlorobenzyl)-3-(4-methyl-3-(pyridin-4-yl)-1H-pyrazol-5-yl)urea] | < 1000
Cc1c(-c2ccncc2)n[nH]c1NC(=O)NCc1ccc(C#N)cc1 [Example 141, 1-[(4-Cyanophenyl)methyl]-3-[4-methyl-3-(pyridin-4-yl)-1H-pyrazol-5-yl]urea] | < 1000
Cc1c(-c2ccncc2)n[nH]c1NC(=O)C(F)(F)Cc1ccc(Cl)cc1 [Example 80, 3-(4-Chlorophenyl)-2,2-difluoro-N-(4-methyl-3-(pyridin-4-yl)-1H-pyrazol-5-yl)propanamide] | 1000 to 10000
Cc1c(-c2ccncc2)n[nH]c1NC(=O)CCc1ccc2ccccc2c1 [Example 28, N-(4-Methyl-3-(pyridin-4-yl)-1H-pyrazol-5-yl)-3-(naphthalen-2-yl)propanamide] | 1000 to 10000
Cc1c(-c2ccncc2)n[nH]c1NC(=O)CCc1cc(F)c(F)cc1F [Example 52, N-(4-Methyl-3-(pyridin-4-yl)-1H-pyrazol-5-yl)-3-(2,4,5-trifluorophenyl)propanamide] | < 1000
Cc1c(-c2ccncc2)n[nH]c1NC(=O)CCc1cc(Cl)c(Cl)c(Cl)c1 [Example 47, N-(4-Methyl-3-(pyridin-4-yl)-1H-pyrazol-5-yl)-3-(3,4,5-trichlorophenyl)propanamide] | < 1000
Cc1c(-c2ccncc2)n[nH]c1NC(=O)CS(=O)(=O)c1ccc(Cl)cc1 [Example 121, 2-((4-chlorophenyl)sulfonyl)-N-(4-methyl-3-(pyridin-4-yl)-1H-pyrazol-5-yl)acetamide] | < 1000
Cc1c(-c2ccncc2)n[nH]c1N(C)C(=O)CCc1ccc(Cl)cc1 [Example 139] | < 1000
N#Cc1c(F)cc(CCC(=O)Nc2cnn(-c3ccncc3)c2Cl)cc1F [Example 93, N-(5-Chloro-1-(pyridin-4-yl)-1H-pyrazol-4-yl)-3-(4-cyano-3,5-difluorophenyl)propanamide] | < 1000
Cc1c(-c2ccncc2)n[nH]c1NC(=O)CCc1cnc(Cl)nc1 [Example 61, 3-(2-Chloropyrimidin-5-yl)-N-(4-methyl-3-(pyridin-4-yl)-1H-pyrazol-5-yl)propanamide] | < 1000
O=C(NCc1ccc(Cl)cc1)Nc1[nH]nc(-c2ccncc2)c1Cl [Example 168, 1-(4-Chloro-3-(pyridin-4-yl)-1H-pyrazol-5-yl)-3-(4-chlorobenzyl)urea] | < 1000
Cc1c(-c2ccncc2)n[nH]c1NC(=O)CCc1cnc(F)nc1 [Example 60, 3-(2-Fluoropyrimidin-5-yl)-N-(4-methyl-3-(pyridin-4-yl)-1H-pyrazol-5-yl)propanamide] | < 1000
O=C(CCc1cc(F)c(Cl)c(F)c1)Nc1cnn(-c2ccncc2)c1Br [Example 127, N-[5-Bromo-1-(pyridin-4-yl)-1H-pyrazol-4-yl]-3-(4-chloro-3,5-difluorophenyl)propanamide] | < 1000
Cc1c(-c2ccncc2)n[nH]c1NC(=O)CCc1cccc2ccccc12 [Example 29, N-(4-Methyl-3-(pyridin-4-yl)-1H-pyrazol-5-yl)-3-(naphthalen-1-yl)propanamide] | 1000 to 10000
O=C(CCc1cc(F)c(F)c(F)c1)Nc1cnn(-c2ccncc2)c1Cl [Example 92, N-(5-Chloro-1-(pyridin-4-yl)-1H-pyrazol-4-yl)-3-(3,4,5-trifluorophenyl)propanamide] | < 1000
S=C(NCc1ccc(Cl)cc1)Nc1cnn(-c2ccncc2)c1 [Example 160, 1-(4-Chlorobenzyl)-3-(1-(pyridin-4-yl)-1H-pyrazol-4-yl)thiourea] | 1000 to 10000
Cc1cnccc1-c1n[nH]c(NC(=O)CCc2cc(F)c(Cl)c(F)c2)c1C [Example 111, 3-(4-Chloro-3,5-difluorophenyl)-N-(4-methyl-3-(3-methylpyridin-4-yl)-1H-pyrazol-5-yl)propanamide] | < 1000
Cc1c(-c2ccncc2)n[nH]c1NC(=O)CCc1cc(F)c(F)c(F)c1 [Example 50, N-(4-Methyl-3-(pyridin-4-yl)-1H-pyrazol-5-yl)-3-(3,4,5-trifluorophenyl)propanamide] | < 1000
CN(C(=O)CCc1ccc(Cl)cc1)c1cnn(-c2ccncc2)c1 [Example 134, 3-(4-Chlorophenyl)-N-methyl-N-(1-(pyridin-4-yl)-1H-pyrazol-4-yl)propanamide] | 1000 to 10000

Next, values leading:

IC50 [nM] | Structure (SMILES)
< 1000 | N#Cc1c(F)cc(CCC(=O)Nc2cc(-c3ccncc3)n[nH]2)cc1F [Example 104, 3-(4-Cyano-3,5-difluorophenyl)-N-(3-(pyridin-4-yl)-1H-pyrazol-5-yl)propanamide]
1000 to 10000 | Cc1cccc(CCC(=O)Nc2[nH]nc(-c3ccncc3)c2C)c1 [Example 25, N-(4-Methyl-3-(pyridin-4-yl)-1H-pyrazol-5-yl)-3-(m-tolyl)propanamide]
< 1000 | O=C(CCc1ccc(Cl)c(F)c1)Nc1[nH]nc(-c2ccncc2)c1CO [Example 118]
< 1000 | Cc1c(-c2ccncc2)n[nH]c1NC(=O)CCc1cc(F)c(C#N)c(F)c1 [Example 65, 3-(4-Cyano-3,5-difluorophenyl)-N-(4-methyl-3-(pyridin-4-yl)-1H-pyrazol-5-yl)propanamide]
< 1000 | Cc1c(-c2ccncc2)n[nH]c1NC(=O)CCc1ccc(CF)cc1 [Example 56, 3-(4-(Fluoromethyl)phenyl)-N-(4-methyl-3-(pyridin-4-yl)-1H-pyrazol-5-yl)propanamide]
1000 to 10000 | O=C(CCc1cccc(Cl)c1)Nc1cc(-c2ccncc2)n[nH]1 [Example 100, 3-(3-Chlorophenyl)-N-(3-(pyridin-4-yl)-1H-pyrazol-5-yl)propanamide]
< 1000 | N#Cc1ccc(CCC(=O)Nc2cc(-c3ccncc3)n[nH]2)cc1F [Example 103]
< 1000 | O=C(CCc1ccc(Cl)cc1)Nc1cc(-c2ccncc2)n[nH]1 [Example 98, 3-(4-Chlorophenyl)-N-(3-(pyridin-4-yl)-1H-pyrazol-5-yl)propanamide]
< 1000 | O=C(NCc1ccc(Cl)cc1)Nc1cc(-c2ccncc2)n[nH]1 [Example 165, 1-(4-Chlorobenzyl)-3-(3-(pyridin-4-yl)-1H-pyrazol-5-yl)urea]
< 1000 | Cc1c(-c2ccncc2)n[nH]c1NC(=O)CCc1ccc([N+](=O)[O-])cc1 [Example 37, N-(4-Methyl-3-(pyridin-4-yl)-1H-pyrazol-5-yl)-3-(4-nitrophenyl)propanamide]
< 1000 | O=C(CCc1ccc(Cl)cc1)Nc1nnc(-c2ccncc2)[nH]1 [Example 162, 3-(4-Chlorophenyl)-N-(5-(pyridin-4-yl)-4H-1,2,4-triazol-3-yl)propanamide]
< 1000 | O=C(CCc1ccc(Cl)cc1)Nc1[nH]nc(-c2ccncc2)c1Br [Example 147, N-(4-Bromo-3-(pyridin-4-yl)-1H-pyrazol-5-yl)-3(4-chlorophenyl)propanamide]
1000 to 10000 | CCc1ccc(CCC(=O)Nc2[nH]nc(-c3ccncc3)c2C)cc1 [Example 34, 3-(4-Ethylphenyl)-N-(4-methyl-3-(pyridin-4-yl)-1H-pyrazol-5-yl)propanamide]
< 1000 | Cc1cnccc1-c1cc(NC(=O)CCc2ccc(Cl)cc2)[nH]n1 [Example 106, 3-(4-Chlorophenyl)-N-(3-(3-methylpyridin-4-yl)-1H-pyrazol-5-yl)propanamide]
< 1000 | Cc1c(-c2ccncc2)n[nH]c1NC(=O)CCc1ccc(C#N)c(F)c1 [Example 53, 3-(4-Cyano-3-fluorophenyl)-N-(4-methyl-3-(pyridin-4-yl)-1H-pyrazol-5-yl)propanamide]
< 1000 | CCc1c(-c2ccncc2)n[nH]c1NC(=O)CCc1ccc(C#N)c(F)c1 [Example 16, 3-(4-Cyano-3-fluorophenyl)-N-(4-ethyl-3-(pyridin-4-yl)-1H-pyrazol-5-yl)propanamide]
